Earlier results on two molecules are cited in patent US20080241292A1, “COMPOSITION AND METHOD FOR WEIGHT LOSS” (IOMEDIX DEVELOPMENT INTERNATIONAL SRL, priority 2006, published 2008).

Ends that are not written are not given here.

For data set [1] the following is noted: humans.
The conditions of data set [2]: exogenous administration to humans.

As to “Glucagon-like peptide-1 (HAEGTFTSDVSSYLEGQAAKEFIAWLVKGR; ends and bridges not checked; UniProt P01275 98-127, looked up) [GLP-1, satiety signal peptide]”, the satiety result in data set [1] is listed as “increase satiety”.

B1: Cholecystokinin (peptide, UniProt P06307 21-115, looked up)
Cholecystokinin: QPVPPADPAGSGLQRAEEAPRRQLRVSQRTDGESRAHLGALLARYIQQARKAPSGRMSIVKNLQNLDPSHRISDRDYMGWMDFGRRSAEEYEYPS
modifications: Cholecystokinin
notes: satiety signal peptide secreted from intestinal cells in response to nutrients
For the molecule B1, the food intake result in data set [2] is “reduction in food intake”.
